Data reported in patent US8124744B2, “Macrolide derivatives” (Taisho Pharmaceutical Co., Ltd., priority 2006, dated 2012).

How the values were obtained:
[1] = tested on: Staphylococcus aureus ATCC29213; assay: Minimal inhibitory concentration (MIC); format: cell-based
Method: (§1) To 7- to 9-week male C57BL/6J mice (purchased from CLEA Japan, Inc. or Japan SLC, Inc.), Zymosan A (SIGMA) derived from budding yeasts which is adjusted to be 1 mg/ml in a phosphate buffer solution (PBS, 10010-49, Invitrogen) was administered intraperitoneally at 1 ml per mouse to induce peritonitis. Three days later, filter-sterilized cell recovery buffer (2 mM EDTA, 0.5% bovine serum albumin, PBS, pH 7.4) was administered intraperitoneally at 5 ml per mouse to recover peritoneal exudata cells. The cells went through a cell strainer (70 μm nylon, FALCON) and were then washed twice with a Hanks solution (Invitrogen). The cells were suspended in 10% fetal calf serum-containing Dulbecco's modified Eagle's culture medium (Invitrogen). The suspension was seeded on a plate with 48 wells, after 6 hours, the culture medium was completely exchanged. After culturing for another 18 hours, test compounds were added at 0.02 to 20 μM of the final concentration. After 1 hour from the addition of the compounds, a tumor necrosis factor (TNF) α (R & D Systems) was added at 25 ng/ml of the final concentration, and 24 hours later, the culture supernatant was collected. The amount of pro MMP-9 protein in the supernatant was quantified by an enzyme-linked immunosorbent assay (ELISA) (R & D Systems), IC50 values of the test compounds on the increased amount by TNF α stimuli, were calculated by ORIGIN analysis software (trade name: OriginLab). In addition, minimal inhibitory concentration (MIC) of each test compounds (measured bacterium: Staphylococcus aureus ATCC29213) was measured. As a comparative agent […] A (clarithromycin) was used.

pro MMP-9 protein = assay: Inhibitory activity against proMMP-9 protein production (TNF α-stimulated mouse peritoneal exudate cells, ELISA); format: cell-based, C57BL/6J mice; conditions: relative activity when the value of Comparative Agent 1 (IC50 = 10.04 ± 4.11 μM) is 10, on the increase of pro MMP-9 by TNF α 25 ng/ml, 24 hours, read-out: IC50 (μM)*
Method: as §1

Work on CCO[C@H]1[C@H](O[C@@H]2[C@@H](C)[C@H](O[C@@H]3C[C@@](C)(OC)[C@@H](O)[C@H](C)O3)[C@@H](C)C(=O)O[C@H](CC)[C@@](C)(O)[C@H](O)[C@@H](C)C(=O)[C@H](C)C[C@]2(C)OC)O[C@H](C)C[C@@H]1N(C)C [Example 105, 2′-O-ethyl-6-O-methylerythromycin A] yielded an MIC [1] greater than 128 µg/mL and an IC50 (pro MMP-9 protein) of 4.38 µM.
CC[C@H]1OC(=O)[C@H](C)[C@@H](O[C@H]2C[C@@](C)(OC)[C@@H](OC(C)=O)[C@H](C)O2)[C@H](C)[C@@H](O[C@@H]2O[C@H](C)C[C@@H](N3CC[C@H](O)C3)[C@@H]2N(C)C)[C@@](C)(OC)C[C@@H](C)C(=O)[C@H](C)[C@@H](O)[C@]1(C)O [Compound X of Example 200, 4″-O-acetyl-3′-dedimethylamino-2′-deoxy-2′-dimethylamino-3′-((S)-3-hydroxypyrrolidin-1-yl)-6-O-methylerythromycin A] was tested, and the MIC [1] was greater than 128 µg/mL and the IC50 (pro MMP-9 protein) was 2.03 µM.
Compound CC[C@H]1OC(=O)[C@H](C)[C@@H](O[C@H]2C[C@@](C)(OC)[C@@H](O)[C@H](C)O2)[C@H](C)[C@@H](O[C@@H]2O[C@H](C)C[C@@H](N3CCN(C)CC3)[C@@H]2N(C)C)[C@@](C)(OC)C[C@@H](C)C(=O)[C@H](C)[C@H]2NC(=O)O[C@@]21C [Example 89, 11-amino-3′-dedimethylamino-11,2′-dideoxy-2′-dimethylamino-3′-(4-methylpiperazin-1-yl)-6-O-methylerythromycin A 11,12-cyclic carbamate] has an MIC [1] greater than 128 µg/mL and an IC50 (pro MMP-9 protein) of 1.59 µM.
Compound CC[C@H]1OC(=O)[C@H](C)[C@@H](O[C@H]2C[C@@](C)(OC)[C@@H](OC(C)=O)[C@H](C)O2)[C@H](C)[C@@H](O[C@@H]2O[C@H](C)C[C@@H](N(C)S(C)(=O)=O)[C@@H]2N(C)C)[C@@](C)(OC)C[C@@H](C)C(=O)[C@H](C)[C@@H](O)[C@]1(C)O [Example 185, 4″-O-acetyl-3′-N-demethyl-2′-deoxy-2′-dimethylamino-3′-N-methanesulfonyl-6-O-methylerythromycin A] has an MIC [1] greater than 128 µg/mL and an IC50 (pro MMP-9 protein) of 2.4 µM.
In the case of CC[C@H]1OC(=O)[C@H](C)[C@@H](O[C@H]2C[C@@](C)(OC)[C@@H](O)[C@H](C)O2)[C@H](C)[C@@H](O[C@@H]2O[C@H](C)C[C@@H](N3CCCCC3)[C@@H]2N(C)C)[C@@](C)(OC)C[C@@H](C)C(=O)[C@H](C)[C@@H](O)[C@]1(C)O [Example 101, 3′-dedimethylamino-2′-deoxy-2′-dimethylamino-3′-(1-piperidino)-6-O-methylerythromycin A], the MIC [1] is reported as greater than 128 µg/mL and the IC50 (pro MMP-9 protein) is reported as 0.62 µM.
Compound CC[C@H]1OC(=O)[C@H](C)[C@@H](O[C@H]2C[C@@](C)(OC)[C@@H](OC(C)=O)[C@H](C)O2)[C@H](C)[C@@H](O[C@@H]2O[C@H](C)C[C@H](N(C)C)[C@H]2OCCCN(C)C)[C@@](C)(OC)C[C@@H](C)C(=O)[C@H](C)[C@@H](O)[C@]1(C)O [Example 116, 4″-O-acetyl-2′-O-(3-dimethylaminopropyl)-6-O-methylerythromycin A] has an MIC [1] greater than 128 µg/mL and an IC50 (pro MMP-9 protein) of 2.79 µM.
Compound CC[C@H]1OC(=O)[C@H](C)[C@@H](O[C@H]2C[C@@](C)(OC)[C@@H](OC(C)=O)[C@H](C)O2)[C@H](C)[C@@H](O[C@@H]2O[C@H](C)C[C@@H](N3CC[C@@H](O)C3)[C@@H]2N(C)C)[C@@](C)(OC)C[C@@H](C)C(=O)[C@H](C)[C@@H](O)[C@]1(C)O [Compound Y of Example 200, 4″-O-acetyl-3′-dedimethylamino-2′-deoxy-2′-dimethylamino-3′-((R)-3-hydroxypyrrolidin-1-yl)-6-O-methylerythromycin A] has an MIC [1] greater than 128 µg/mL and an IC50 (pro MMP-9 protein) of 3.02 µM.
In the case of CC[C@H]1OC(=O)[C@H](C)[C@@H](O[C@H]2C[C@@](C)(OC)[C@@H](OC(C)=O)[C@H](C)O2)[C@H](C)[C@@H](O[C@@H]2O[C@H](C)C[C@@H](N3CCCC(O)C3)[C@@H]2N(C)C)[C@@](C)(OC)C[C@@H](C)C(=O)[C@H](C)[C@@H](O)[C@]1(C)O (mixture of isomers) [Example 196, 4″-O-acetyl-3′-dedimethylamino-2′-deoxy-2′-dimethylamino-3-((±)-3-hydroxypiperidin-1-yl)-6-O-methylerythromycin A], the MIC [1] is reported as greater than 128 µg/mL and the IC50 (pro MMP-9 protein) is reported as 2.51 µM.
CC[C@H]1OC(=O)[C@H](C)[C@@H](O[C@H]2C[C@@](C)(OC)[C@@H](O)[C@H](C)O2)[C@H](C)[C@@H](O[C@@H]2O[C@H](C)C[C@H](N(C)CCCN(C)C)[C@H]2OC)[C@@](C)(OC)C[C@@H](C)C(=O)[C@H](C)[C@@H](O)[C@]1(C)O [Example 130, 3′-N-demethyl-3′-N-(3-dimethylaminopropyl)-6,2′-di-O-methylerythromycin A] showed an MIC [1] greater than 128 µg/mL and an IC50 (pro MMP-9 protein) of 1.33 µM.
CC[C@H]1OC(=O)[C@H](C)[C@@H](O[C@H]2C[C@@](C)(OC)[C@@H](O)[C@H](C)O2)[C@H](C)[C@@H](O[C@@H]2O[C@H](C)C[C@H](N(C)C)[C@H]2OCCCNS(C)(=O)=O)[C@@](C)(OC)C[C@@H](C)C(=O)[C@H](C)[C@@H](O)[C@]1(C)O [Example 117, 2′-O-(3-methanesulfonylamidepropyl)-6-O-methylerythromycin A] was tested, and the MIC [1] was greater than 128 µg/mL and the IC50 (pro MMP-9 protein) was 3.55 µM.
Work on CC[C@H]1OC(=O)[C@H](C)[C@@H](O[C@H]2C[C@@](C)(OC)[C@@H](O)[C@H](C)O2)[C@H](C)[C@@H](O[C@@H]2O[C@H](C)C[C@@H](N3CC[C@H](O)C3)[C@@H]2N(C)C)[C@@](C)(OC)C[C@@H](C)C(=O)[C@H](C)[C@@H](O)[C@]1(C)O [Example 201, 3′-dedimethylamino-2′-deoxy-2′-dimethylamino-3′-((S)-3-hydroxypyrrolidin-1-yl)-6-O-methylerythromycin A] yielded an MIC [1] greater than 128 µg/mL and an IC50 (pro MMP-9 protein) of 4.45 µM.
With CC[C@H]1OC(=O)[C@H](C)[C@@H](O[C@H]2C[C@@](C)(OC)[C@@H](OC(C)=O)[C@H](C)O2)[C@H](C)[C@@H](O[C@@H]2O[C@H](C)C[C@H](N(C)C)[C@H]2OC)[C@@](C)(OC)C[C@@H](C)C(=O)[C@H](C)[C@H]2NC(=O)O[C@@]21C [Example 148, 4″-O-acetyl-11-amino-11-deoxy-6,2′-di-O-methylerythromycin A 11,12-cyclic carbamate] the MIC [1] was greater than 128 µg/mL and the IC50 (pro MMP-9 protein) was 7.68 µM.
Work on CC[C@H]1OC(=O)[C@H](C)[C@@H](O[C@H]2C[C@@](C)(OC)[C@@H](OC(C)=O)[C@H](C)O2)[C@H](C)[C@@H](O[C@@H]2O[C@H](C)C[C@@H](N3CCOCC3)[C@@H]2N(C)C)[C@@](C)(OC)C[C@@H](C)C(=O)[C@H](C)[C@@H](O)[C@]1(C)O [Example 177, 4″-O-acetyl-3′-dedimethylamino-2′-deoxy-2′-dimethylamino-3′-(4-morpholino)-6-O-methylerythromycin A] yielded an MIC [1] greater than 128 µg/mL and an IC50 (pro MMP-9 protein) of 4.42 µM.
Work on CC[C@H]1OC(=O)[C@H](C)[C@@H](O[C@H]2C[C@@](C)(OC)[C@@H](OC(C)=O)[C@H](C)O2)[C@H](C)[C@@H](O[C@@H]2O[C@H](C)C[C@@H](N3CCOCC3)[C@@H]2N(C)CCN(C)C)[C@@](C)(OC)C[C@@H](C)C(=O)[C@H](C)[C@@H](O)[C@]1(C)O [Example 215] yielded an MIC [1] greater than 128 µg/mL and an IC50 (pro MMP-9 protein) of 1.21 µM.
Compound CC[C@H]1OC(=O)[C@H](C)[C@@H](O)[C@H](C)[C@@H](O[C@@H]2O[C@H](C)C[C@H](N(C)Cc3cccc(OC)c3)[C@H]2O)[C@@](C)(OC)C[C@@H](C)C(=O)[C@H](C)[C@H]2NC(=O)O[C@@]21C [Example 65, 11-amino-11-deoxy-5-O-(3′-N-demethyl-3′-N-(3-methoxybenzyl)desosaminyl)-6-O-methylerythronolide A 11,12-cyclic carbamate] has an IC50 (pro MMP-9 protein) of 1.37 µM.
In the case of CC[C@H]1OC(=O)[C@H](C)[C@@H](O[C@H]2C[C@@](C)(OC)[C@@H](O)[C@H](C)O2)[C@H](C)[C@@H](O[C@@H]2O[C@H](C)C[C@H](N3CCOCC3)[C@H]2OC)[C@@](C)(OC)C[C@@H](C)C(=O)[C@H](C)[C@@H](O)[C@]1(C)O [Example 139, 3′-N-dedimethylamino-3-(4-morpholino)-6,2′-di-O-methylerythromycin A], the MIC [1] is reported as greater than 128 µg/mL and the IC50 (pro MMP-9 protein) is reported as 5.51 µM.
CC[C@H]1OC(=O)[C@H](C)[C@@H](O[C@H]2C[C@@](C)(OC)[C@@H](O)[C@H](C)O2)[C@H](C)[C@@H](O[C@@H]2O[C@H](C)C[C@@H](N3CCN(CCN(C)C)CC3)[C@@H]2N(C)C)[C@@](C)(OC)C[C@@H](C)C(=O)[C@H](C)[C@@H](O)[C@]1(C)O [Example 169, 3′-dedimethylamino-2′-deoxy-2′-dimethylamino-3′-(4-(2-dimethylaminoethyl)piperazin-1-yl)-6-O-methylerythromycin A] showed an MIC [1] greater than 128 µg/mL and an IC50 (pro MMP-9 protein) of 2.89 µM.
CC[C@H]1OC(=O)[C@H](C)C(=O)[C@H](C)[C@@H](O[C@@H]2O[C@H](C)C[C@@H](N3CCOCC3)[C@@H]2N(C)C)[C@@](C)(OC)C[C@@H](C)C(=O)[C@H](C)[C@H]2N(CCCCn3cnc(-c4cccnc4)c3)C(=O)O[C@]12C [Example 211, 3,11-dideoxy-5-O-(3′-dedimethylamino-2′-deoxy-2′-dimethylamino-3′-(4-morpholino)desosaminyl)-11-{4-[4-(pyridin-3-yl)-1H-imidazol-1-yl]butyl}-amino-3-oxo-6-O-methylerythronolide A 11,12-cyclic carbamate] gave an MIC [1] greater than 128 µg/mL and an IC50 (pro MMP-9 protein) of 2.58 µM.
